Test results taken from patent US20080221131A1, “THIENOPYRIMIDINEDIONES AND THEIR USE IN MODULATION OF AUTOIMMUNE DISEASE” (priority 2003, published 2008).

Tested on: PMA/ionomycin-stimulated PBMC proliferation
Assay: Inhibition of PMA/ionomycin-stimulated peripheral blood mononuclear cell proliferation
Format: cell-based
Settings: human PBMC, PMA 0.5 ng/ml + ionomycin 500 ng/ml, 72 hours, 3H-thymidine incorporation; read-out: PIA50 (the source's name) (converted)
Procedure: Inhibition of PMA/Ionomycin-Stimulated Peripheral Blood Mononuclear Cell Proliferation
The assay for PMA/ionomycin-stimulated PBMC proliferation was performed in 96-well flat-bottomed microtitre plates. Compounds were prepared as 10 mM stock solutions in dimethyl sulfoxide. A 50-fold dilution of this was prepared in RPMI and serial dilutions were prepared from this solution. 10 μl of the 50-fold diluted stock, or dilutions of it, were added to the well to give concentrations in the assay starting at 9.5 μM and going down. Into each well was placed 1×10^5 PBMC, prepared from human peripheral blood from a single donor, in RPMI1640 medium supplemented with 10% human serum, 2 mM glutamine and penicillin/streptomycin. Phorbol myristate acetate (PMA) (0.5 ng/ml final concentration) and ionomycin (500 ng/ml final concentration) were added to these cells in supplemented RPMI1640 medium (as above) so that the final volume of the assay was 0.2 ml. The cells were incubated at 37° C. in a humidified atmosphere at 5% carbon dioxide for 72 hours. ^3H-Thymidine (0.5 μCi) was added for the final 6 hours of the incubation. The level of radioactivity incorporated by the cells was then determined and this is a measure of proliferation.

| SMILES | IC50 [nM] |
| --- | --- |
| Cc1nn(-c2ncccn2)c(C)c1Cc1sc2c(c1C(=O)N1C[C@H](O)CO1)c(=O)n(C)c(=O)n2C(C)C [Example 1, 6-[[3,5-dimethyl-1-(2-pyrimidinyl)-1H-pyrazol-4-yl]methyl]-5-[[(4S)-4-hydroxy-2-isoxazolidinyl]carbonyl]-3-methyl-1-(1-methylethyl)thieno[2,3-d]pyrimidine-2,4(1H,3H)-dione] | 5.01 |
| Cc1nn(-c2nccs2)c(C)c1Cc1sc2c(c1C(=O)N1C[C@H](O)CO1)c(=O)n(C)c(=O)n2C(C)C [Example 3, (S)-2-[[6-[[3,5-Dimethyl-1-(2-thiazolyl)-1H-pyrazol-4-yl]methyl]-1,2,3,4-tetrahydro-3-methyl-1-(1-methylethyl)-2,4-dioxothieno[2,3-d]pyrimidin-5-yl]carbonyl]-4-isoxazolidinol] | 0.851 |
